Laboratory results reported in the supplement of paper PMC11551840.

Columns and labels:
Assay in all cases: IC50 (cell viability, 72 h) (ln(µM))
BICR10 = test system: BICR10
Procedure: (§1)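 Discovery screen of OSCC cell lines in 1,536-well plates. Cells were treated 24 h after seeding with 7 concentrations spanning a 1,000-fold half-log range for 72 h, and viability was read by CellTiter-Glo 2.0 and normalised to DMSO (1) and medium-only (0) controls. IC50 comes from a two-parameter logistic nonlinear mixed-effects fit and is reported as natural log of IC50 in µM.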

HO-1-u-1 = test system: HO-1-u-1
Procedure: as §1

HSC-2 = test system: HSC-2
Procedure: as §1

HSC-4 = test system: HSC-4
Procedure: as §1

ORL-115 = test system: ORL-115
Procedure: as §1

ORL-136 = test system: ORL-136
Procedure: as §1

ORL-150 = test system: ORL-150
Procedure: as §1

ORL-153 = test system: ORL-153
Procedure: as §1

ORL-156 = test system: ORL-156
Procedure: as §1

ORL-166 = test system: ORL-166
Procedure: as §1

ORL-174 = test system: ORL-174
Procedure: as §1

ORL-188 = test system: ORL-188
Procedure: as §1

ORL-195 = test system: ORL-195
Procedure: as §1

ORL-204 = test system: ORL-204
Procedure: as §1

ORL-207 = test system: ORL-207
Procedure: as §1

ORL-214 = test system: ORL-214
Procedure: as §1

ORL-215 = test system: ORL-215
Procedure: as §1

ORL-48 = test system: ORL-48
Procedure: as §1

PE-CA-PJ15 = test system: PE-CA-PJ15
Procedure: as §1

SAS = test system: SAS
Procedure: as §1

SCC-9 = test system: SCC-9
Procedure: as §1

| Compound | IC50 (ln) (BICR10) | IC50 (ln) (HO-1-u-1) | IC50 (ln) (HSC-2) | IC50 (ln) (HSC-4) | IC50 (ln) (ORL-115) | IC50 (ln) (ORL-136) | IC50 (ln) (ORL-150) | IC50 (ln) (ORL-153) | IC50 (ln) (ORL-156) | IC50 (ln) (ORL-166) | IC50 (ln) (ORL-174) | IC50 (ln) (ORL-188) | IC50 (ln) (ORL-195) | IC50 (ln) (ORL-204) | IC50 (ln) (ORL-207) | IC50 (ln) (ORL-214) | IC50 (ln) (ORL-215) | IC50 (ln) (ORL-48) | IC50 (ln) (PE-CA-PJ15) | IC50 (ln) (SAS) | IC50 (ln) (SCC-9) |
| --- | --- | --- | --- | --- | --- | --- | --- | --- | --- | --- | --- | --- | --- | --- | --- | --- | --- | --- | --- | --- | --- |
| Cc1cc(-c2nc(-c3ccc(OC(F)(F)F)cc3)no2)nn1Cc1ccnc(N2CCN(C3CC3)CC2)c1 [BAY-87-2243] | -1.01 | -1.24 | -1.04 | -5.92 | -5.09 | -0.901 | -2.36 | -0.683 | -0.734 | -2.29 | -0.785 | -0.131 | -1.57 | -2.77 | -2.38 | -0.338 | -2.31 | -1.95 | -1.76 | -3.51 | -3.5 |
| CC[C@@H]1C(=O)N(C)c2cnc(Nc3ccc(C(=O)NC4CCN(C)CC4)cc3OC)nc2N1C1CCCC1 [BI-2536] | -2.78 | -2.33 | -2.87 | -1.33 | -2.1 | 1.66 | -3.5 | -2.08 | -2.91 | -3.02 | -2.58 | -2.94 | -2.26 | -0.226 | -2.92 | -2.28 | -3.45 | -1.8 | -0.628 | -1.93 | 0.0591 |
| CC(C)C[C@H](NC(=O)[C@H](Cc1ccccc1)NC(=O)c1cnccn1)B(O)O [Bortezomib] | -4.95 | -5.69 | -5.55 | -4.5 | -4.36 | -4.79 | -4.88 | -4.84 | -4.46 | -5.43 | -5.44 | -5.03 | -5.04 | -4.52 | -5.3 | -5.37 | -5.32 | -4.47 | -4.28 | -5.88 | -4.18 |
| CC[C@@]1(O)C(=O)OCc2c1cc1n(c2=O)Cc2cc3ccccc3nc2-1 [Camptothecin] | -1.45 | -0.864 | -4 | -3.06 | -1.73 | -1.37 | -3.04 | -3.34 | -2.15 | -3.18 | -2.91 | -3.95 | -2.2 | -3.82 | -4.09 | -4.76 | -2.87 | -2.57 | -2.24 | -4.38 | 1.24 |
| Cc1c2oc3c(C)ccc(C(=O)N[C@@H]4C(=O)N[C@H](C(C)C)C(=O)N5CCC[C@H]5C(=O)N(C)CC(=O)N(C)[C@@H](C(C)C)C(=O)O[C@@H]4C)c3nc-2c(C(=O)N[C@@H]2C(=O)N[C@H](C(C)C)C(=O)N3CCC[C@H]3C(=O)N(C)CC(=O)N(C)[C@@H](C(C)C)C(=O)O[C@@H]2C)c(N)c1=O [Dactinomycin] | -3.88 | -5.18 | -5.7 | -3.96 | -4.09 | -4.38 | -5.32 | -6.27 | -5.7 | -6.04 | -5.84 | -5.69 | -5.67 | -4.99 | -5.32 | -5.57 | -4.6 | -5.43 | -4.55 | -4.65 | -2.9 |
| CCc1cnn2c(NCc3ccc[n+]([O-])c3)cc(N3CCCC[C@H]3CCO)nc12 [Dinaciclib] | -2.5 | -3.83 | -4.36 | -3.41 | -4.03 | -2.65 | -3.93 | -3.5 | -4.06 | -4.64 | -4.02 | -4.08 | -3.57 | -3.8 | -3.83 | -4.09 | -4.15 | -3.44 | -3.29 | -4.47 | -1.35 |
| CC(=O)O[C@@]12CO[C@@H]1C[C@H](O)[C@@]1(C)C(=O)[C@H](O)C3=C(C)[C@@H](OC(=O)[C@H](O)[C@@H](NC(=O)OC(C)(C)C)c4ccccc4)C[C@@](O)([C@@H](OC(=O)c4ccccc4)[C@H]21)C3(C)C [Docetaxel] | -5.07 | -4.77 | -6.54 | -4.06 | -4.57 | -2.74 | -6.63 | -5.35 | -4.72 | -5.53 | -6.19 | -7 | -5.11 | -5.44 | -6.77 | -6.46 | -6.3 | -6.36 | -3.61 | -3.91 | -3.63 |
| CCNC(=O)c1noc(-c2cc(C(C)C)c(O)cc2O)c1-c1ccc(CN2CCOCC2)cc1 [Luminespib] | -3.95 | -4.16 | -4.34 | -2.55 | -1.26 | -3.13 | -3.97 | -3.79 | -3.29 | -2.05 | -4.47 | -4.38 | -4.03 | -2.64 | -4.84 | -4.45 | -3.76 | -4.29 | -2.87 | -3.87 | -2.72 |
| CC(C)C[C@@H](C=O)NC(=O)[C@H](CC(C)C)NC(=O)[C@H](CC(C)C)NC(=O)OCc1ccccc1 [MG-132] | -0.312 | -1.98 | -1.34 | -0.832 | -0.897 | -1.24 | -0.689 | -1.31 | -0.951 | -1.11 | -1.61 | -1.21 | -1.32 | -1.04 | -1.48 | -1.68 | -1.39 | -1.04 | -0.875 | -1.28 | -0.805 |
| COc1ncc(-c2ccc3nccc(-c4ccnnc4)c3c2)cc1NS(=O)(=O)c1ccc(F)cc1F [Omipalisib] | -2.02 | -3.13 | -4.69 | -0.985 | -1.58 | -2.66 | -4.18 | – | -3.31 | -2.96 | -3.91 | -3.88 | -3.16 | -2.59 | -3.51 | -3.91 | -2.45 | -3.43 | -1.36 | -1.24 | -1.11 |
| CC(=O)O[C@H]1C(=O)[C@@]2(C)[C@H]([C@H](OC(=O)c3ccccc3)[C@]3(O)C[C@H](OC(=O)[C@H](O)[C@@H](NC(=O)c4ccccc4)c4ccccc4)C(C)=C1C3(C)C)[C@]1(OC(C)=O)CO[C@@H]1C[C@@H]2O [Paclitaxel] | -4.85 | -3.72 | -5.85 | -2.73 | -4.44 | -2.48 | -6.11 | -4.87 | -4.99 | -5.21 | -5.25 | -6.34 | -4.66 | -4.96 | -5.88 | -5.78 | -5.5 | -5.51 | -2.85 | -3.47 | -3.62 |
